Measurements published in ChEMBL document CHEMBL5465560, “Selectivity Literature for EUbOPEN Chemogenomic Library” (2024).

Experiments:
[1] = target: Cyclin-dependent kinase 11B (Homo sapiens) (UniProt P21127); experiment: Selectivity interaction (KinomeScan (DiscoverX)) EUB0000666a CDK11B; details: at 10 µM
[2] = target: T1, Gamma-aminobutyric acid receptor subunit alpha-1 (Homo sapiens) (UniProt P14867); experiment: Selectivity interaction (GPCR panel (PDSP screen)) EUB0001079a GABRA1; details: at 10 µM
T1 sequence (whole entry): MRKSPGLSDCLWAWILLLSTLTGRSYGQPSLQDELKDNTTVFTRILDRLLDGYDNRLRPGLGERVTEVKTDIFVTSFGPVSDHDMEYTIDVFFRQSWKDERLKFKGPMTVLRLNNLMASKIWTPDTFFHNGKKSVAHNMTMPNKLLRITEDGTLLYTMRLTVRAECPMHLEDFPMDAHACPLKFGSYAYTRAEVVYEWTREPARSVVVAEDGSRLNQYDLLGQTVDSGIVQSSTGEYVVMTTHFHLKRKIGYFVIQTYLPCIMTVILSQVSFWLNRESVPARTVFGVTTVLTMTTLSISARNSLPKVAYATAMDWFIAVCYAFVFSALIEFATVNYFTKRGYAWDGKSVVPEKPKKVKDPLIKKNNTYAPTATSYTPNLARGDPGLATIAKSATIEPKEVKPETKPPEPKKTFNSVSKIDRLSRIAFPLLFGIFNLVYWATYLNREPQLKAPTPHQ

[3] = target: Receptor-type tyrosine-protein kinase FLT3 (Homo sapiens) (UniProt P36888); experiment: Selectivity interaction (KinomeScan (DiscoverX)) EUB0001079a FLT3; details: at 1 µM
[4] = target: ALK tyrosine kinase receptor (Homo sapiens, UniProt Q9UM73); experiment: Selectivity interaction (KinomeScan (DiscoverX)) EUB0000595a ALK; details: at 10 µM
Chain of ALK tyrosine kinase receptor (Q9UM73 19-1620 limits assumed): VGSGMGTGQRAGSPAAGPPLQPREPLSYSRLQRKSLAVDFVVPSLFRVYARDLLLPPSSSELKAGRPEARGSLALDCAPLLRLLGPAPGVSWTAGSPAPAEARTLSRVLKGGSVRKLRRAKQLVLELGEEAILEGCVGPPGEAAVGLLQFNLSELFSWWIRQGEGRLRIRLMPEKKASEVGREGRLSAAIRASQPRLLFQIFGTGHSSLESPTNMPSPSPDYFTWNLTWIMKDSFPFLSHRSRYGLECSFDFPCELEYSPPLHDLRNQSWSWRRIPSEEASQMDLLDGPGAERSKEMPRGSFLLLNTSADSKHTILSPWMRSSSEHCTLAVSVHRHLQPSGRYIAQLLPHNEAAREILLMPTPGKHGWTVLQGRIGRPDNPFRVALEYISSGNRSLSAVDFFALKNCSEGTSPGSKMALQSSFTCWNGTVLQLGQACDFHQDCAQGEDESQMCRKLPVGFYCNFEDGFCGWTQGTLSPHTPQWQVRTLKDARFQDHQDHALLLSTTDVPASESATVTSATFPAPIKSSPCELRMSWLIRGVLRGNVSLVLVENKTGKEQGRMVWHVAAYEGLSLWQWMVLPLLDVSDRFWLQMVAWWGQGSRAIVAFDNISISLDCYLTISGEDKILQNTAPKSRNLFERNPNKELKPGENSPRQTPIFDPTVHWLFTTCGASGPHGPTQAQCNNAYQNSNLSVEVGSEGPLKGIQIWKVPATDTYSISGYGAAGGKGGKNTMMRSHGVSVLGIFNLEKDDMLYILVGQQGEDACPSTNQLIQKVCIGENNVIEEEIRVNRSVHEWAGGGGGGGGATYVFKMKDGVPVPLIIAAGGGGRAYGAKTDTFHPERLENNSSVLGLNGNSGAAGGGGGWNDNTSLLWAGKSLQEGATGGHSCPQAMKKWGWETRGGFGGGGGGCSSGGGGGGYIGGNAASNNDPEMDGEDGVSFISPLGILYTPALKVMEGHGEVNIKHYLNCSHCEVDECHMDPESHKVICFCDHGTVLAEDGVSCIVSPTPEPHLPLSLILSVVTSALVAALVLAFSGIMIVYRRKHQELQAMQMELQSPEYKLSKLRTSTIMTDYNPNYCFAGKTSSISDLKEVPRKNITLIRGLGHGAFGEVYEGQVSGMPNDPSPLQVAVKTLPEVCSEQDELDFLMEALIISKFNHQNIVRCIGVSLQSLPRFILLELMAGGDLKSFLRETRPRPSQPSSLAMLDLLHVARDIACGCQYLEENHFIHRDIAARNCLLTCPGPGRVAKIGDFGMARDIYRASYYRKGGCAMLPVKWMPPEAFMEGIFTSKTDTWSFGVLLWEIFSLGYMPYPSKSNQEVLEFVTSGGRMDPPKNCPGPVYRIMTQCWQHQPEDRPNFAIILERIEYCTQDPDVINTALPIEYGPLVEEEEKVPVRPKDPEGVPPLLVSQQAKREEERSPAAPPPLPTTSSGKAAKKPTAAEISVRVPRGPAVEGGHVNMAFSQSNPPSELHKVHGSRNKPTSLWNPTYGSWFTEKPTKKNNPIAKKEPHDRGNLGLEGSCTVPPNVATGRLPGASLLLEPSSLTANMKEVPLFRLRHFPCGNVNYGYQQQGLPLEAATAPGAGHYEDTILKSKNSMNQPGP

[5] = target: Ribosomal protein S6 kinase alpha-5 (Homo sapiens) (UniProt O75582); experiment: Selectivity interaction (Kinase screening (Nanosyn)) EUB0000604a RPS6KA5
Chain of Ribosomal protein S6 kinase alpha-5 (Homo sapiens) (O75582 whole entry, looked up): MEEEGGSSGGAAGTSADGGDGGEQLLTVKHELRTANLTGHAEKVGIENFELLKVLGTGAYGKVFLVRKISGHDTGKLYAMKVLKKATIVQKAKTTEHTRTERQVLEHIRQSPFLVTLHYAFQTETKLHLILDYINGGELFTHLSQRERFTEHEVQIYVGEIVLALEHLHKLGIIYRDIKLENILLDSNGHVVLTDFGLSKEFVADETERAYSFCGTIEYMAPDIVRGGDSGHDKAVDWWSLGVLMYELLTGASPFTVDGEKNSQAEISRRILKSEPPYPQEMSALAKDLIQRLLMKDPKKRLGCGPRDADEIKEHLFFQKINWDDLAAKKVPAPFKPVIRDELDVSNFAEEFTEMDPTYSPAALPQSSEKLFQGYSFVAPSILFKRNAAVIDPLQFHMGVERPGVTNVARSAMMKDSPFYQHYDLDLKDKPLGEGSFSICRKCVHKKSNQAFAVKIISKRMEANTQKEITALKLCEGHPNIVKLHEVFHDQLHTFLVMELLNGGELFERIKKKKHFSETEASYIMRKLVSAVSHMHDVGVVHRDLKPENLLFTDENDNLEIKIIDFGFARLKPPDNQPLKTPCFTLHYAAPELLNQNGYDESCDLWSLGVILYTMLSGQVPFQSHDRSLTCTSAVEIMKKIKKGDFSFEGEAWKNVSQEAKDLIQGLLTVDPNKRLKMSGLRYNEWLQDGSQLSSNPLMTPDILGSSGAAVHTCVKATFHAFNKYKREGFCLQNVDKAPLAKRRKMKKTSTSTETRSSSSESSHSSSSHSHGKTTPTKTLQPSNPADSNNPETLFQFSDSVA

[6] = target: T2, Testis-specific serine/threonine-protein kinase 1 (Homo sapiens) (UniProt Q9BXA7); experiment: Selectivity interaction (Ambit KINOMEscan and KiNATiv profiling in Jurkat cells) EUB0000090b TSSK1B; assay type: cell-based; details: at 1 µM
T2 sequence (whole entry): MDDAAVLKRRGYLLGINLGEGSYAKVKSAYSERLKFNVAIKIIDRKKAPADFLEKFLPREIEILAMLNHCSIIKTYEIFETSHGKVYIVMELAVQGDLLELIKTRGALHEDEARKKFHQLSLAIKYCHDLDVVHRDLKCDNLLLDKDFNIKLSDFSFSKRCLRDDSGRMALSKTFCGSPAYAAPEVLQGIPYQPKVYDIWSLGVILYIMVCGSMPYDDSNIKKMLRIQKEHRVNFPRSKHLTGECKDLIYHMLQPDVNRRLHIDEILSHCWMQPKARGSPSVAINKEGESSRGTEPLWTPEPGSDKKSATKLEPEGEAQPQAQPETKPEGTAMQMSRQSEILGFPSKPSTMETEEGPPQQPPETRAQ

[7] = test system: T3, Receptor-type tyrosine-protein kinase FLT3 (Homo sapiens), P36888 [K663Q]; details: at 10 µM
T3 sequence (whole entry): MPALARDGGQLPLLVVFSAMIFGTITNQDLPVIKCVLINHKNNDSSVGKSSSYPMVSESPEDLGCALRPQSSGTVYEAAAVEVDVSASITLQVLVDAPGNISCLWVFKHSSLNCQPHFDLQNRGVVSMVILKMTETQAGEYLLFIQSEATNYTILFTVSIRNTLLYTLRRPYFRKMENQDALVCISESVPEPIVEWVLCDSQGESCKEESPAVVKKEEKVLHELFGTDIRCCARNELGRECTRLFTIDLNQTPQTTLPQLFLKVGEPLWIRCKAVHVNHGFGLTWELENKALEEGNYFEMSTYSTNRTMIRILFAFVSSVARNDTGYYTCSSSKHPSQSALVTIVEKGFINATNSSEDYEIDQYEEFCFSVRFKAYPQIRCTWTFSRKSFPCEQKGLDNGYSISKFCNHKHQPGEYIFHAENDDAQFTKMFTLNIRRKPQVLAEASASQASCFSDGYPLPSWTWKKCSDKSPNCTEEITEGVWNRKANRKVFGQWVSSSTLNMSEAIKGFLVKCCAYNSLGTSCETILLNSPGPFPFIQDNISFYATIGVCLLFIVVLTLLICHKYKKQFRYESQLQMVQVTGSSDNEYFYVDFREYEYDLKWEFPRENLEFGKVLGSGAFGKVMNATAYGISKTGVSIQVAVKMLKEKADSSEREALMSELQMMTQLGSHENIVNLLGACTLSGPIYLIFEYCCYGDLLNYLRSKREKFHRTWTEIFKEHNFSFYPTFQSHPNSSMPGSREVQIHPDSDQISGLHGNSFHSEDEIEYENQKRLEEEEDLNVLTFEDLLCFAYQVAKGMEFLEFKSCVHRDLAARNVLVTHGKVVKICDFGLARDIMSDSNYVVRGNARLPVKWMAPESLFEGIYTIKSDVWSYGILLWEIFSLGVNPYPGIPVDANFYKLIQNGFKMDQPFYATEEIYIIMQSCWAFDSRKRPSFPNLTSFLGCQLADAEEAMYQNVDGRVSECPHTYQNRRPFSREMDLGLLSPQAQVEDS

[8] = target: Myosin light chain kinase 2, skeletal/cardiac muscle (Homo sapiens) (UniProt Q9H1R3); experiment: Selectivity interaction (KinomeScan (DiscoverX)) EUB0000695a MYLK2; details: at 100 nM
Chain of Myosin light chain kinase 2, skeletal/cardiac muscle (Homo sapiens) (Q9H1R3 whole entry): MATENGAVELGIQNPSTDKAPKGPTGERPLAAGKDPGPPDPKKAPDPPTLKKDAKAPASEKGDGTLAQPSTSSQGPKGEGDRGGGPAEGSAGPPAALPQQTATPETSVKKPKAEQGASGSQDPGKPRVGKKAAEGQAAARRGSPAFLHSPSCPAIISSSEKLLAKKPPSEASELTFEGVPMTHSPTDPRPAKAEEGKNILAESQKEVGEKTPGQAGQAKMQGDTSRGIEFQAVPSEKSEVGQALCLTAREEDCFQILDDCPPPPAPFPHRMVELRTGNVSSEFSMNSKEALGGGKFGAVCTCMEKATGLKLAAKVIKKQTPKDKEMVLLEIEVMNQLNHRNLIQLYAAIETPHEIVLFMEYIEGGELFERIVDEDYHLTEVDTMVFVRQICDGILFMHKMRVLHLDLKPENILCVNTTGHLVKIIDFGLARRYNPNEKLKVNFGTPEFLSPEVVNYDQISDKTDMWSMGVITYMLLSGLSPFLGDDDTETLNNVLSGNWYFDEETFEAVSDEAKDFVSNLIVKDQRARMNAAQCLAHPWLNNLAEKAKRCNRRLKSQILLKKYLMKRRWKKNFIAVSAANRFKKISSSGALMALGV

Chain of Cyclin-dependent kinase 11B (Homo sapiens) (P21127 whole entry): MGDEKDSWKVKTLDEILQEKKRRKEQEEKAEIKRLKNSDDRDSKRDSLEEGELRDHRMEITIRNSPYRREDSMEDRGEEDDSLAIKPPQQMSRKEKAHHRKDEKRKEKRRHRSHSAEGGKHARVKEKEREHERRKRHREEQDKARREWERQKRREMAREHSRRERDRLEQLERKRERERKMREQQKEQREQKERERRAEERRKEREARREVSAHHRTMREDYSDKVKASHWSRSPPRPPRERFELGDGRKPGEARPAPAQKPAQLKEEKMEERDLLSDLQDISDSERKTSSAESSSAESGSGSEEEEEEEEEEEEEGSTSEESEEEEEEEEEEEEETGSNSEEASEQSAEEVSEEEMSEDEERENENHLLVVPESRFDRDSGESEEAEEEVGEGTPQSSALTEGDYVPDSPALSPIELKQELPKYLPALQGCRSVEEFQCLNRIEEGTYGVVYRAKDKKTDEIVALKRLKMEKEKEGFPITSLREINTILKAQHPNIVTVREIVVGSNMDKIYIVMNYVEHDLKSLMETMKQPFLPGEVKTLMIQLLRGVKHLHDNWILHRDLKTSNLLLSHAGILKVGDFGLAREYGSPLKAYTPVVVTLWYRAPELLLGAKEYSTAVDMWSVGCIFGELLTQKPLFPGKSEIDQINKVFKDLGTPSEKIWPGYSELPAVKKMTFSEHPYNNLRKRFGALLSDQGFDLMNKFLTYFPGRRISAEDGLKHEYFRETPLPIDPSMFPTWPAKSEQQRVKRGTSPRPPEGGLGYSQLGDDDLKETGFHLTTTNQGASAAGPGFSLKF

`O=C(NOC[C@H](O)CO)c1ccc(F)c(F)c1Nc1ccc(I)cc1F` showed a % of control [1] of 97%.
`Nc1cnc(N2CCc3cc(S(=O)(=O)Nc4c(F)cc(Cl)cc4F)cc(N4CCCC4=O)c32)nc1` [TP-020n] showed a % of inhibition [2] of -1.96% and a % of control [3] of 91%.
With `COCC(=O)NC/C=C/c1ccc2ncnc(Nc3ccc(Oc4ccc(C)nc4)c(C)c3)c2c1` [CP-724714] the % of control [4] was 100%.
`Cc1cnc(Nc2ccc(F)cc2Cl)nc1-c1c[nH]c(C(=O)N[C@H](CO)c2cccc(Cl)c2)c1` gave a % of inhibition [5] of 7%.
`CN(C)C/C=C/C(=O)Nc1ccc(C(=O)N2CCCC(Nc3ncc(Cl)c(-c4c[nH]c5ccccc45)n3)C2)cc1` (stereo not drawn) gave a % of control [6] of 83%.
In the case of `Cc1cc([C@@H](C)Nc2ccccc2C(=O)O)c2nc(N3CCOCC3)cc(=O)n2c1` [AZD-6482], the % of control [7] is reported as 13%.
In the case of `Cc1cc(F)c(C(=O)Nc2cccc(-c3nncn3C(C)C)n2)cc1-n1cnc(C2CC2)c1`, the % of control [8] is reported as 100%.
